{"source": "patent US7592336B2", "about": "“Hepatitis C virus inhibitors” (Bristol-Myers Squibb Company, priority 2005, dated 2009)", "key": {"[1]": {"system": "T1, human pancreatic chymotrypsin", "T1 construct": "\"human pancreatic chymotrypsin\"", "assay": "Specificity assay, chymotrypsin", "type": "biochemical", "details": "2 h enzyme-inhibitor pre-incubation; read-out: Chymotrypsin activity in the specificity assays (IC50)", "description": "(§1) The specificities of compounds of the present disclosure were determined against a variety of serine proteases: human neutrophil elastase (HNE), porcine pancreatic elastase (PPE) and human pancreatic chymotrypsin and one cysteine protease: human liver cathepsin B. In all cases a 96-well plate format protocol using calorimetric p-nitroaniline (pNA) substrate specific for each enzyme was used as described previously (PCT Patent Application No. WO 00/09543) with some modifications to the serine protease assays. All enzymes were purchased from Sigma while the substrates were from Bachem.\n(§2) Each assay included a 2 h enzyme-inhibitor pre-incubation at room temperature followed by addition of substrate and hydrolysis to 30% conversion as measured on a Spectramax Pro microplate reader. Compound concentrations varied from 100 to 0.4 μM depending on their potency. […]\n(§3) The percentage of inhibition was calculated using the formula: [1−((UVinh−UVblank)/(UVctl−UVblank))]×100 […]"}, "[2]": {"molecular_target": "T2, human liver cathepsin B (Homo sapiens, UniProt P07858)", "T2 construct": "purchased Sigma; host or cells: human liver", "assay": "Specificity assay, cathepsin B", "type": "biochemical", "details": "2 h enzyme-inhibitor pre-incubation; read-out: Cathepsin B activity in the specificity assays (IC50)", "description": "as §1, §2, §3"}, "[3]": {"molecular_target": "T3, porcine pancreatic elastase (PPE) (Sus scrofa, UniProt P00772)", "T3 construct": "purchased Sigma", "T3 sequence (P00772 27-266)": "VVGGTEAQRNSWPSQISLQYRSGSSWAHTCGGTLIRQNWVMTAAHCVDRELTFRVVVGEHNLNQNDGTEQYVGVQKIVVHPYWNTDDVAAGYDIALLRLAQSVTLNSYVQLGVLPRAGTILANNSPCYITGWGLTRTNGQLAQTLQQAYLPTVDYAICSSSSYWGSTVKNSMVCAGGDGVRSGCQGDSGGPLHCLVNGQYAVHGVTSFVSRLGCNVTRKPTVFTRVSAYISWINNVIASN", "assay": "Specificity assay, porcine pancreatic elastase", "type": "biochemical", "details": "2 h enzyme-inhibitor pre-incubation; read-out: PPE activity in the specificity assays (IC50)", "description": "as §1, §2, §3"}, "[4]": {"molecular_target": "T4, HCV NS3/4A protease complex, BMS strain (UniProt P27958, species not given/STRAIN_BMS)", "T4 construct": "said of H77 and J4L6S, not expressly of BMS; fused on or other part: A three-lysine solubilising tail at the NS4A C-terminus and purification on Ni-NTA are described for the H77 and J4L6S constructs", "T4 sequence (P27958 1027-1657, change not shown, one chain of several)": "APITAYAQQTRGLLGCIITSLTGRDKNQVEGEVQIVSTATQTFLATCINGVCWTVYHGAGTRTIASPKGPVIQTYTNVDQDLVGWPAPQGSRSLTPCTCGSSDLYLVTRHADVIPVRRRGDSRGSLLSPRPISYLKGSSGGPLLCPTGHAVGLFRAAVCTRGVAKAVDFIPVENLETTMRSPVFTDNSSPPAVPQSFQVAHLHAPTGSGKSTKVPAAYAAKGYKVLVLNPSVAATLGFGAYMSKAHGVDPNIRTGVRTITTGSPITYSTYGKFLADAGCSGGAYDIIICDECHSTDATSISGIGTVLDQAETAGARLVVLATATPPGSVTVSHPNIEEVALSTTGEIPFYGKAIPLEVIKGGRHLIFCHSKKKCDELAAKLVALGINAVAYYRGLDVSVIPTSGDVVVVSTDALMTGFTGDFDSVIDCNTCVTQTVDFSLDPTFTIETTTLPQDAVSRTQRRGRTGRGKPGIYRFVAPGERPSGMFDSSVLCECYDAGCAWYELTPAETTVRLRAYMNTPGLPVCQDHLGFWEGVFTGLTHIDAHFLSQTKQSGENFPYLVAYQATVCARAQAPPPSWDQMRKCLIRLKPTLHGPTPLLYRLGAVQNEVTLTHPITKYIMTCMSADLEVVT", "assay": "FRET peptide assay to monitor HCV NS3/4A proteolytic activity (BMS strain)", "type": "biochemical, HCV genotype 1a", "text": "HCV NS3 protease complexes, derived from the BMS strain, H77 strain or J4L6S strain, were generated, as described below. These purified recombinant proteins were generated for use in a homogeneous assay (see below) to provide an indication of how effective compounds of the present disclosure would be in inhibiting HCV NS3 proteolytic activity.\nSerum from an HCV-infected patient was obtained from Dr. T. Wright, San Francisco Hospital. An engineered full-length cDNA (compliment deoxyribonucleic acid) template of the HCV genome (BMS strain) was constructed from DNA fragments obtained by reverse transcription-PCR (RT-PCR) of serum RNA (ribonucleic acid) and using primers selected on the basis of homology between other genotype 1a strains. From the determination of the entire genome sequence, a genotype 1a was assigned to the HCV isolate according to the classification of Simmonds et al. (See P Simmonds, K A Rose, S Graham, S W Chan, F McOmish, B C Dow, E A Follett, P L Yap and H Marsden, J. Clin. Microbiol., 31(6), 1493-1503 (1993)). […] The infectious clones, H77 (1a genotype) and J4L6S (1b genotype) were obtained from R. Purcell (NIH) and the sequences are published in Genbank (AAB67036, see Yanagi, M., Purcell, R. H., Emerson, S. U. and Bukh, J. Proc. Natl. Acad. Sci. U.S.A. 94(16), 8738-8743 (1997); AF054247, see Yanagi, M., St Claire, M., Shapiro, M., Emerson, S. U., Purcell, R. H. and Bukh, J, Virology 244 (1), 161-172. (1998)).\nNS3/4A protease complex-containing fractions were pooled and loaded on a desalting column Superdex-S200 pre-equilibrated with buffer D (25 mM HEPES, pH 7.5, 20% glycerol, 300 mM NaCl, 0.2% Triton X-100, 10 mM βME). Sample was loaded at a flow rate of 1 mL/min. NS3/4A protease complex-containing fractions were pooled and concentrated to approximately 0.5 mg/ml. The purity of the NS3/4A protease complexes, derived from the BMS, H77 and J4L6S strains, were judged to be greater than 90% by SDS-PAGE and mass spectrometry analyses. The enzyme was stored at −80° C., thawed on ice and diluted prior to use in assay buffer.\nThe purpose of this in vitro assay was to measure the inhibition of HCV NS3 protease complexes, derived from the BMS strain, H77 strain or J4L6S strain, as described above, by compounds of the present disclosure. This assay provides an indication of how effective compounds of the present disclosure would be in inhibiting HCV NS3 proteolytic activity.\nIn order to monitor HCV NS3/4A protease activity, an NS3/4A peptide substrate was used. The substrate was RET S1 (Resonance Energy Transfer Depsipeptide Substrate; AnaSpec, Inc. cat #22991) (FRET peptide), described by Taliani et al. in Anal. Biochem. 240(2):60-67 (1996). The sequence of this peptide is loosely based on the NS4A/NS4B natural cleavage site for the HCV NS3 protease except there is an ester linkage rather than an amide bond at the cleavage site. The peptide also contains a fluorescence donor, EDANS, near one end of the peptide and an acceptor, DABCYL, near the other end. The fluorescence of the peptide is quenched by […] resonance energy transfer (RET) between the donor and the acceptor, but as the NS3 protease cleaves the peptide the products are released from RET quenching and the fluorescence of the donor becomes apparent.\nThe peptide substrate was incubated with one of the three recombinant NS3/4A protease complexes, in the absence or presence of a compound of the present disclosure. The inhibitory effects of a compound were determined by monitoring the formation of fluorescent reaction product in real time using a Cytofluor Series 4000.\nAssay buffer: 50 mM HEPES, pH 7.5; 0.15M NaCl; 0.1% Triton; 15% Glycerol; 10 mM βME. Substrate: 2 μM final concentration (from a 2 mM stock solution in DMSO stored at −20° C.). HCV NS3/4A protease type 1a (1b), 2-3 nM final concentration (from a 5 μM stock solution in 25 mM HEPES, pH 7.5, 20% glycerol, 300 mM NaCl, 0.2% Triton-X100, 10 mM βME). […]"}}, "note": "Like-named read-outs stand apart in the source and are kept apart here."}
{"smiles": "C=C[C@@H]1C[C@]1(NC(=O)[C@@H]1C[C@@](O)(c2ccc(-c3ccccc3)cc2)CN1C(=O)[C@@H](NC(=O)OC(C)(C)C)C(C)(C)C)C(=O)NS(=O)(=O)C1CC1", "note": "[Compound 3]", "values": [{"measurement": "IC50", "setting": "[1]", "result": "> 100", "unit": "µM"}, {"measurement": "IC50", "setting": "[2]", "result": 2, "unit": "µM"}, {"measurement": "IC50", "setting": "[3]", "result": "> 100", "unit": "µM"}, {"measurement": "IC50", "setting": "[4]; BMS strain, read-out: IC50 against the NS3/4A BMS strain in the enzyme assay", "result": 0.004, "unit": "µM"}, {"measurement": "IC50", "setting": "[4]; NS3/4A BMS strain, read-out: Activity Range (IC50)", "result": "0.001 to 0.1", "unit": "µM"}]}
